Experimental data as given in ChEMBL document CHEMBL1201862, “PubChem BioAssay data set” (2004).
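Five compound concentrations were applied to cells in 96-well plates for 48 hours; endpoints were derived by simple linear interpolation of the resulting dose-response curve. GI50 is the concentration that inhibits growth by half.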 Calls of active or inactive are those of the source. Cut-off read from the data, not from the text of the source: active = GI50 up to about 1.1 µM and inactive = higher.

Assays:
Test in all cases: growth of human tumour cells (NCI), 48 h
HCT-116 = test system: HCT-116
IGROV-1 = test system: IGROV-1
UACC-257 = test system: UACC-257
M14 = test system: M14
RPMI-8226 = test system: RPMI-8226
KM12 = test system: KM12
ACHN = test system: ACHN
OVCAR-3 = test system: OVCAR-3
HT-29 = test system: HT-29
K562 = test system: K562
T47D = test system: T47D
LOX IMVI = test system: LOX IMVI
TK-10 = test system: TK-10
DU-145 = test system: DU-145
SK-MEL-2 = test system: SK-MEL-2
COLO 205 = test system: COLO 205
SK-MEL-5 = test system: SK-MEL-5
786-0 = test system: 786-0
A498 = test system: A498
SK-MEL-28 = test system: SK-MEL-28
CCRF-CEM = test system: CCRF-CEM
NCI-H460 = test system: NCI-H460
SF-268 = test system: SF-268
SK-OV-3 = test system: SK-OV-3
UO-31 = test system: UO-31
Hs-578T = test system: Hs-578T
MDA-MB-435 = test system: MDA-MB-435
MCF7 = test system: MCF7
NCI-H522 = test system: NCI-H522
MOLT-4 = test system: MOLT-4
HCC 2998 = test system: HCC 2998
OVCAR-5 = test system: OVCAR-5
PC-3 = test system: PC-3
Malme-3M = test system: Malme-3M
MDA-N = test system: MDA-N
SW-620 = test system: SW-620
NCI-H226 = test system: NCI-H226
HCT-15 = test system: HCT-15
HL-60 = test system: HL-60
BT-549 = test system: BT-549
OVCAR-4 = test system: OVCAR-4
MDA-MB-231 = test system: MDA-MB-231
NCI-H23 = test system: NCI-H23
OVCAR-8 = test system: OVCAR-8
A549 = test system: A549
SNB-19 = test system: SNB-19
SN12C = test system: SN12C
U-251 = test system: U-251
UACC-62 = test system: UACC-62
NCI/ADR-RES = test system: NCI/ADR-RES
EKVX = test system: EKVX
SF-295 = test system: SF-295
CAKI-1 = test system: CAKI-1
SF-539 = test system: SF-539
HOP-92 = test system: HOP-92

In the case of `CC1(C)CC(=O)C(CC(C(=O)C(=O)Nc2cc(C(F)(F)F)ccc2Cl)C(=O)c2ccco2)C(=O)C1` (stereo not given), the GI50 (HCT-116) is reported as > 100 µM (inactive), the GI50 (IGROV-1) is reported as > 100 µM (inactive) and the GI50 (UACC-257) is reported as > 100 µM (inactive). For the same compound, the GI50 (M14) was > 100 µM (inactive), the GI50 (RPMI-8226) was > 100 µM (inactive) and the GI50 (KM12) was > 100 µM (inactive). For the same compound, the GI50 (ACHN) was > 100 µM (inactive), the GI50 (OVCAR-3) was > 100 µM (inactive) and the GI50 (HT-29) was > 100 µM (inactive). For the same compound, the GI50 (K562) was > 100 µM (inactive), the GI50 (T47D) was > 100 µM (inactive) and the GI50 (LOX IMVI) was > 100 µM (inactive). For the same compound, the GI50 (TK-10) was > 100 µM (inactive), the GI50 (DU-145) was > 100 µM (inactive) and the GI50 (SK-MEL-2) was > 100 µM (inactive). For the same compound, the GI50 (COLO 205) was > 100 µM (inactive), the GI50 (SK-MEL-5) was > 100 µM (inactive) and the GI50 (786-0) was > 100 µM (inactive). For the same compound, the GI50 (A498) was 46.9 µM (inactive), the GI50 (SK-MEL-28) was > 100 µM (inactive) and the GI50 (CCRF-CEM) was > 100 µM (inactive). The GI50 (NCI-H460) was > 100 µM (inactive), the GI50 (SF-268) was > 100 µM (inactive) and the GI50 (SK-OV-3) was > 100 µM (inactive). For the same compound, the GI50 (UO-31) was > 100 µM (inactive), the GI50 (Hs-578T) was > 100 µM (inactive) and the GI50 (MDA-MB-435) was > 100 µM (inactive). For the same compound, the GI50 (MCF7) was > 100 µM (inactive), the GI50 (NCI-H522) was > 100 µM (inactive) and the GI50 (MOLT-4) was > 100 µM (inactive). The GI50 (HCC 2998) was > 100 µM (inactive), the GI50 (OVCAR-5) was > 100 µM (inactive) and the GI50 (PC-3) was > 100 µM (inactive). The GI50 (Malme-3M) was > 100 µM (inactive), the GI50 (MDA-N) was > 100 µM (inactive) and the GI50 (SW-620) was > 100 µM (inactive). The GI50 (NCI-H226) was > 100 µM (inactive), the GI50 (HCT-15) was greater than 100 µM and the GI50 (HL-60) was > 100 µM (inactive). The GI50 (BT-549) was > 100 µM (inactive), the GI50 (OVCAR-4) was > 100 µM (inactive) and the GI50 (MDA-MB-231) was > 100 µM (inactive). The GI50 (NCI-H23) was > 100 µM (inactive), the GI50 (OVCAR-8) was > 100 µM (inactive) and the GI50 (A549) was > 100 µM (inactive). The GI50 (SNB-19) was > 100 µM (inactive), the GI50 (SN12C) was > 100 µM (inactive) and the GI50 (U-251) was > 100 µM (inactive). For the same compound, the GI50 (UACC-62) was > 100 µM (inactive), the GI50 (NCI/ADR-RES) was > 100 µM (inactive) and the GI50 (EKVX) was > 100 µM (inactive). The GI50 (SF-295) was > 100 µM (inactive), the GI50 (CAKI-1) was > 100 µM (inactive) and the GI50 (SF-539) was > 100 µM (inactive). The GI50 (HOP-92) was > 100 µM (inactive).
